Measured values from US20230150951A1, “2,5- OR 2,6-DISUBSTITUTED HYDROQUINONE DERIVATIVES WITH AT LEAST ONE CARBOXY, SULFO OR AMIDO GROUP USEFUL AS MEDICAMENTS” (OM PHARMA SA, priority 2020, published 2023).
Read-outs that look alike come from different tables or passages of the source.

Key:
Assay type in all cases: cell-based
TNF-beta = assay: Cytokine release after LPS induction on human whole blood: TNFβ
Description: (§1) Aim of this in vitro method is to assess compounds effects on release of a panel of cytokines from whole blood following lipopolysaccharide (LPS) induced inflammatory reaction. Whole blood was incubated with compounds for 1 h prior to LPS induction. Cytokine levels in blood were measured using a multiplex FACS-based panel.
(§2) IC50 values determined for the tested compounds expressed in microM [μM] and the values for the inhibition of cytokines were listed for each compound.
(§3) Effect on cytokines release after LPS induction was performed on the compounds dissolved in DMSO or H2O to reach 10-fold concentrated stock solutions and dissolved in culture media.
(§4) Test system: Whole blood was removed from a single donor (into lithium heparin coated tubes; BD Vacutainer; 367886) and diluted 1:5 with RPMI 1640 (Thermo Fisher, 61870036). Within 30 minutes of sampling, blood was incubated with compounds for 1 h prior to LPS stimulation (O111:B4—Sigma L4391; 10 ng/ml final concentration). Stimulation continued under standard cell culture conditions (37° C. with 5% CO2) overnight (18 h), after which plates were centrifuged and supernatant removed and frozen at −80° C. until used for analyses.
(§5) Dilution of test compounds: 10×concentrated solutions (concerning to the final assay concentrations) of each test compound were prepared with the appropriate solvent (in DMSO or in water). These 10× compound solutions (10 μl) were then added to 90 μl pre-diluted whole blood (whole blood: RPMI1640, 1:5) resulting in the final assay concentration.
(§6) Test method: Diluted whole blood (80 μl) was pre-incubated with compounds (10 μl) to give final assay concentrations of 100, 30, 10, 3, 1, 0.3 and 0.1×10^−6M. Blood was incubated at 37° C. with 5% CO2 for 1 h. LPS was diluted in cell culture media to a concentration of […]; 10 μl was added to the whole blood to give a final concentration of 10 ng/ml. Plates were incubated at 37° C. for 18 h. Plates were centrifuged at 3,000 RPM for 5 minutes at 4° C. and supernatant removed and frozen at −80° C. until FACS analysis was carried out.
(§7) Cytokine release was measured using a custom multiplex system (ELISA Genie) according to manufacturers instructions. Prepared samples were run on an Attune NxT flow cytometer (Thermo Fisher).
(§8) Quantification of cytokine release inhibition: known concentration standards were run as part of the cytokine panel to allow quantification of each cytokine concentration in each sample. This was carried out using FCAP Array v3.0 software.
(§9) Results: The dose response relationship on cytokine release following LPS induction of inflammatory response in whole blood was assessed for all compounds. IC50 values were determined for each compound for a panel of cytokines (GM-CSF, IFN-gamma, IL-1beta, IL-2, IL-4, IL-5, IL-6, IL-8, IL-9, IL-10, IL-12p40, IL-13, IL-17A, IL-17F, IL-18, IL-21, IL-22, IL-33, TGF-beta, TNF-alpha, TNF-beta).

IL-4 = assay: Cytokine release after LPS induction on human whole blood: IL-4
Description: as §1, §2, §3, §4, §5, §6, §7, §8, §9

IL-10 = assay: Cytokine release after LPS induction on human whole blood: IL-10
Description: as §1, §2, §3, §4, §5, §6, §7, §8, §9

IL-17A = assay: Cytokine release after LPS induction on human whole blood: IL-17A
Description: as §1, §2, §3, §4, §5, §6, §7, §8, §9

IFN-gamma = assay: Cytokine release after LPS induction on human whole blood: IFNγ
Description: as §1, §2, §3, §4, §5, §6, §7, §8, §9

IL-5 = assay: Cytokine release after LPS induction on human whole blood: IL-5
Description: as §1, §2, §3, §4, §5, §6, §7, §8, §9

IL-2 = assay: Cytokine release after LPS induction on human whole blood: IL-2
Description: as §1, §2, §3, §4, §5, §6, §7, §8, §9

IL-13 = assay: Cytokine release after LPS induction on human whole blood: IL-13
Description: as §1, §2, §3, §4, §5, §6, §7, §8, §9

Human neutrophils = assay: Inhibition of ROS production in human neutrophils (isoluminol chemiluminescence); settings: Homo sapiens, Neutrophil; 0.3 μM; fMLP+TNF-α stimulated PMN
How it was run: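 Neutrophils from healthy-donor buffy coats (3×10^6/ml in HBSS with Ca/Mg) pre-incubated 30 min at 37° C with compound (0.1–10 μM), primed with TNF-α 20 ng/ml for 10 min, then added to fibrinogen-coated wells. Isoluminol/HRP chemiluminescence recorded every 25 sec for 250 sec after fMLP (1 μM), background-subtracted.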

IC50 (TNF-beta; Homo sapiens, LPS 10 ng/ml, 18 h, read-out: Whole Blood: TNF β IC50): 0.89 µM
IC50 (TNF-beta; human whole blood, inhibition of LPS induced inflammation, read-out: IC50 β): 0.89 µM
IC50 (IL-4; Homo sapiens, LPS 10 ng/ml, 18 h, read-out: Whole Blood: IL-4 IC50): > 100 µM
IC50 (IL-4; human whole blood, inhibition of LPS induced inflammation, read-out: IC50 IL-4): 100 µM
IC50 (IL-10; Homo sapiens, LPS 10 ng/ml, 18 h, read-out: Whole Blood: IL-10 IC50): 37.3 µM
IC50 (IL-10; human whole blood, inhibition of LPS induced inflammation, read-out: IC50 IL-10): 37.3 µM
IC50 (IL-17A; Homo sapiens, LPS 10 ng/ml, 18 h, read-out: Whole Blood: IL-17A IC50): 0.15 µM
IC50 (IL-17A; human whole blood, inhibition of LPS induced inflammation, read-out: IC50 IL-17A): 0.15 µM
IC50 (IFN-gamma; Homo sapiens, LPS 10 ng/ml, 18 h, read-out: Whole Blood: IFNγ IC50): 0.15 µM
IC50 (IFN-gamma; human whole blood, inhibition of LPS induced inflammation, read-out: IC50 IFNγ): 0.15 µM
IC50 (IL-5; Homo sapiens, LPS 10 ng/ml, 18 h, read-out: Whole Blood: IL-5 IC50): > 100 µM
IC50 (IL-5; human whole blood, inhibition of LPS induced inflammation, read-out: IC50 IL-5): 100 µM
IC50 (IL-2; Homo sapiens, LPS 10 ng/ml, 18 h, read-out: Whole Blood: IL-2 IC50): 57.1 µM
IC50 (IL-2; human whole blood, inhibition of LPS induced inflammation, read-out: IC50 IL-2): 57.1 µM
IC50 (IL-13; Homo sapiens, LPS 10 ng/ml, 18 h, read-out: Whole Blood: IL-13 IC50): 0.37 µM
IC50 (IL-13; human whole blood, inhibition of LPS induced inflammation, read-out: IC50 IL-13): 0.37 µM
SMILES: O=C(O)Cc1cc(O)c(C(=O)Nc2c(C(=O)O)cccc2C(=O)O)cc1O [IIIa-013a, 2-(4-(carboxymethyl)-2,5-dihydroxybenzamido)isophthalic acid]
inhibition at 0.3 µM (Human neutrophils): 76.5%
